{
  "source": "patent US10202379B2",
  "about": "“Substituted polycyclic carbamoyl pyridone derivative prodrug” (priority 2010, dated 2019)",
  "key": {"[1]": {"tested_on": "influenza virus (A/WS/33, A/Victoria/3/75 or B/Maryland/1/59)", "type": "in vivo", "settings": "oral, infected mouse, 14 days after virus infection"}, "[2]": {"experiment": "BA test (oral absorbability)", "type": "in vivo", "settings": "rat; for plasma concentration of the prodrug itself: oral administration, non-fasting, all plasma samples; for Parent compound BA(%): oral administration of parent compound", "method": "Experimental Material and Method for Studying Oral Absorbability\n(1) Animal to be used: A mouse or rat was used.\n(2) Rearing conditions: Mouse and rat ingested a solid feed and sterilized tap water ad-libitum.\n(3) Dose and setting of grouping: A predetermined dose was administered orally or intravenously. A group was set as follows. (a dose varied for every compound)\nOral administration 1 to 30 mg/kg (n=2 to 3)\nIntravenous administration 0.5 to 10 mg/kg (n=2 to 3)\n(4) Preparation of administration solution: For oral administration, a solution or suspension was administered. For intravenous administration, a compound which was solubilized was administered.\n(5) Administration method: For oral administration, the administration solution was forcibly administered to the stomach by oral sonde. For intravenous administration, the administration solution was administered with a syringe equipped with an injection needle through a tail vein.\n(6) Assessment item: Blood was collected with time, and a plasma drug concentration was measured using LC/MS/MS.\n(7) Statistical analysis: Regarding plasma concentration transition, an area under a plasma concentration-time curve (AUC) was calculated using a non-linear minimum square method program WinNonlin (registered trademark), and bioavailability (BA) was calculated from AUC of an oral-administered group and an intervenous-administered group."}, "influenza virus": {"tested_on": "influenza virus", "experiment": "microbe, parasite or virus in culture", "type": "cell-based", "settings": "unidentified influenza virus, 72 h, read-out: CPE EC50, parent compounds (Reference examples); MDBK or MDCK cells, 3 days, WST-8"}, "[3]": {"target": "Cap-dependant Endonuclease (CEN) (RNP fraction, PB1-PB2-PA complex) (Influenza A virus (strain A/Wilson-Smith/1933 H1N1) (Influenza A virus (strain A/WS/1933 H1N1)), UniProt P15659)", "type": "biochemical, influenza A/WSN/33 virus"}, "[4]": {"settings": "parent compounds (Reference examples), room temperature, 60 minutes"}},
  "note": "pEC50, pIC50: −log10 of the molar value. Read-outs that look alike come from different tables or passages of the source.",
  "data": [
    {"compound": "CC(=O)Oc1c2n(ccc1=O)N([C@H]1c3ccccc3CSc3ccccc31)CN([C@H](C)C(F)(F)F)C2=O", "note": "[Example 20]", "values": [
      {"measurement": "ED50 of single dose (dose for 50% lethality inhibition)", "setting": "[1]", "result": 4.4, "unit": "mg/kg/day"}
    ]},
    {"compound": "CC(=O)OCOc1c2n(ccc1=O)N(C1c3ccccc3CSc3ccccc31)CN(C(C)C)C2=O", "note": "(centres unmarked) [Example 114]", "values": [
      {"measurement": "plasma concentration of the prodrug itself", "setting": "[2]", "result": "a determination limit or less"}
    ]},
    {"compound": "CC(=O)Oc1c2n(ccc1=O)N(C1c3ccccc3CSc3ccccc31)CN(C(C)C)C2=O", "note": "(centres unmarked) [Example 204]", "values": [
      {"measurement": "plasma concentration of the prodrug itself", "setting": "[2]", "result": "a determination limit or less"}
    ]},
    {"compound": "CC(C)N1CN(C2c3ccccc3CSc3ccccc32)n2ccc(=O)c(O)c2C1=O", "note": "(centres unmarked) [Reference example 301]", "values": [
      {"measurement": "Parent compound BA(%)", "setting": "[2]", "result": 2.3, "unit": "%"}
    ]},
    {"compound": "C[C@@H](N1CN([C@@H]2c3ccccc3SCc3cccc(Cl)c32)n2ccc(=O)c(O)c2C1=O)C(F)(F)F", "note": "[Reference example 429]", "values": [
      {"measurement": "pEC50", "setting": "influenza virus", "result": 8.40},
      {"measurement": "Parent compound BA(%)", "setting": "[2]", "result": 13.3, "unit": "%"}
    ]},
    {"compound": "C[C@@H](N1CN([C@@H]2c3ccccc3SCc3c(F)cccc32)n2ccc(=O)c(O)c2C1=O)C(F)(F)F", "note": "[Reference example 445]", "values": [
      {"measurement": "pIC50", "setting": "[3]; [4]", "result": 7.89},
      {"measurement": "pEC50", "setting": "influenza virus", "result": 8.40},
      {"measurement": "Parent compound BA(%)", "setting": "[2]", "result": 12.1, "unit": "%"}
    ]},
    {"compound": "C[C@@H](N1CN([C@H]2c3cccc(F)c3CSc3c(Cl)cccc32)n2ccc(=O)c(O)c2C1=O)C(F)(F)F", "note": "[Reference example 594]", "values": [
      {"measurement": "pIC50", "setting": "[3]", "result": 7.96},
      {"measurement": "pEC50", "setting": "influenza virus", "result": 8.40},
      {"measurement": "Parent compound BA(%)", "setting": "[2]", "result": 5.0, "unit": "%"}
    ]},
    {"compound": "CCc1cccc2c1[C@H](N1CN([C@H](C)C(F)(F)F)C(=O)c3c(O)c(=O)ccn31)c1cccc(F)c1SC2", "note": "[compound 724]", "values": [
      {"measurement": "pIC50", "setting": "[3]; [4]", "result": 8.29},
      {"measurement": "pEC50", "setting": "influenza virus", "result": 8.20}
    ]},
    {"compound": "C#Cc1cccc2c1[C@H](N1CN([C@H](C)C(F)(F)F)C(=O)c3c(O)c(=O)ccn31)c1cccc(F)c1SC2", "note": "[compound 726]", "values": [
      {"measurement": "pIC50", "setting": "[3]; [4]", "result": 8.43},
      {"measurement": "pEC50", "setting": "influenza virus", "result": 8.41}
    ]},
    {"compound": "COc1cccc2c1[C@H](N1CN([C@H](C)C(F)(F)F)C(=O)c3c(O)c(=O)ccn31)c1ccccc1SC2", "note": "[compound 728]", "values": [
      {"measurement": "pIC50", "setting": "[3]; [4]", "result": 7.13},
      {"measurement": "pEC50", "setting": "influenza virus", "result": 8.36}
    ]},
    {"compound": "C#Cc1cccc2c1[C@H](N1CN([C@H](C)C(F)(F)F)C(=O)c3c(O)c(=O)ccn31)c1ccccc1SC2", "note": "[compound 730]", "values": [
      {"measurement": "pIC50", "setting": "[3]; [4]", "result": 8.60},
      {"measurement": "pEC50", "setting": "influenza virus", "result": 9.10}
    ]},
    {"compound": "CCc1cccc2c1[C@H](N1CN([C@H](C)C(F)(F)F)C(=O)c3c(O)c(=O)ccn31)c1ccccc1SC2", "note": "[compound 731]", "values": [
      {"measurement": "pIC50", "setting": "[3]; [4]", "result": 8.24},
      {"measurement": "pEC50", "setting": "influenza virus", "result": 8.68}
    ]},
    {"compound": "C[C@@H](N1CN([C@@H]2c3ccccc3SCc3cccc(C(F)(F)F)c32)n2ccc(=O)c(O)c2C1=O)C(F)(F)F", "note": "[compound 741]", "values": [
      {"measurement": "pIC50", "setting": "[3]; [4]", "result": 7.68},
      {"measurement": "pEC50", "setting": "influenza virus", "result": 8.45}
    ]},
    {"compound": "C[C@@H]1Sc2ccccc2[C@@H](N2CN([C@H](C)C(F)(F)F)C(=O)c3c(O)c(=O)ccn32)c2c(Cl)cccc21", "note": "[compound 748]", "values": [
      {"measurement": "pIC50", "setting": "[3]; [4]", "result": 7.62},
      {"measurement": "pEC50", "setting": "influenza virus", "result": 8.04}
    ]},
    {"compound": "C[C@@H](N1CN([C@@H]2c3ccccc3SCc3cccc(N(C)C)c32)n2ccc(=O)c(O)c2C1=O)C(F)(F)F", "note": "[compound 752]", "values": [
      {"measurement": "pIC50", "setting": "[3]; [4]", "result": 7.85},
      {"measurement": "pEC50", "setting": "influenza virus", "result": 8.51}
    ]},
    {"compound": "C[C@@H](N1CN([C@H]2c3ccccc3SCc3cccc(N(C)C)c32)n2ccc(=O)c(O)c2C1=O)C(F)(F)F", "note": "[compound 753]", "values": [
      {"measurement": "pIC50", "setting": "[3]; [4]", "result": 6.96},
      {"measurement": "pEC50", "setting": "influenza virus", "result": 7.73}
    ]},
    {"compound": "C[C@@H](N1CN([C@@H]2c3ccccc3SCc3cccc(Cl)c32)n2cc(Cl)c(=O)c(O)c2C1=O)C(F)(F)F", "note": "[compound 762]", "values": [
      {"measurement": "pIC50", "setting": "[3]; [4]", "result": 7.50},
      {"measurement": "pEC50", "setting": "influenza virus", "result": 8.23}
    ]},
    {"compound": "Cc1cccc2c1SCc1cccc(Cl)c1[C@@H]2N1CN([C@H](C)C(F)(F)F)C(=O)c2c(O)c(=O)ccn21", "note": "[compound 768]", "values": [
      {"measurement": "pIC50", "setting": "[3]; [4]", "result": 7.82},
      {"measurement": "pEC50", "setting": "influenza virus", "result": 8.44}
    ]},
    {"compound": "C[C@@H](N1CN([C@@H]2c3cccc(F)c3SCc3cccc(Br)c32)n2ccc(=O)c(O)c2C1=O)C(F)(F)F", "note": "[compound 771]", "values": [
      {"measurement": "pIC50", "setting": "[3]; [4]", "result": 8.23},
      {"measurement": "pEC50", "setting": "influenza virus", "result": 8.39}
    ]},
    {"compound": "C[C@@H](N1CN([C@@H]2c3ccc(F)cc3SCc3cccc(Cl)c32)n2ccc(=O)c(O)c2C1=O)C(F)(F)F", "note": "[compound 772]", "values": [
      {"measurement": "pIC50", "setting": "[3]; [4]", "result": 8.28},
      {"measurement": "pEC50", "setting": "influenza virus", "result": 8.43}
    ]}
  ]
}
